Experimental data taken from the supplement of paper PMC10307832.

Key:
Experiment in all cases: relative viability (nuclei count vs DMSO), 5 days (fraction); higher = more cells survive
[1] = compound: CC1=CC=C(C=C1)C(=O)CN2C3=C(CCCC3)SC2=N [Pifithrin_alpha] + Nc1ncn([C@H]2C[C@H](O)[C@@H](CO)O2)c(=O)n1 [Decitabine] (partner 2 µM)
Outline: (§1)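 Lung cancer cell lines were seeded in 1536-well plates and dosed by pin tool the next day, with either a single drug or a fixed anchor-drug dose combined with five library-drug doses (not always all listed) spaced in √10 steps. Five days later, one step fixed the cells and stained their nuclei (final 0.05% Triton X-100, 1% formaldehyde, 1 ug/ml Hoechst), and nuclei were counted on 4× images. Relative viability is the nuclei count in treated wells divided by the count in vehicle wells, and each value is the median of duplicate plates.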

Axitinib + AZD7762 = compound: CNC(=O)c1ccccc1Sc1ccc2c(/C=C/c3ccccn3)n[nH]c2c1 [Axitinib] + NC(=O)Nc1cc(-c2cccc(F)c2)sc1C(=O)N[C@H]1CCCNC1 [AZD7762] (partner 0.2 µM)
Outline: as §1

[2] = compound: CC1=CC=C(C=C1)C(=O)CN2C3=C(CCCC3)SC2=N [Pifithrin_alpha] + COc1cccc2cc(-c3nc([C@H]4CC[C@H](C(=O)O)CC4)n4ncnc(N)c34)[nH]c12 [OSI-027] (partner 0.5 µM)
Outline: as §1

Axitinib + Navitoclax = compound: CNC(=O)c1ccccc1Sc1ccc2c(/C=C/c3ccccn3)n[nH]c2c1 [Axitinib] + CC1(C)CCC(c2ccc(Cl)cc2)=C(CN2CCN(c3ccc(C(=O)NS(=O)(=O)c4ccc(N[C@H](CCN5CCOCC5)CSc5ccccc5)c(S(=O)(=O)C(F)(F)F)c4)cc3)CC2)C1 [Navitoclax] (partner 0.5 µM)
Outline: as §1

Row | Cell Line | relative viability ([1]; first compound 1 µM) | relative viability ([1]; first compound 3.162 µM) | relative viability ([1]; first compound 10 µM) | relative viability ([1]; first compound 31.62 µM) | relative viability ([1]; first compound 100 µM) | relative viability (Axitinib + AZD7762; first compound 0.005 µM) | relative viability (Axitinib + AZD7762; first compound 0.01581 µM) | relative viability (Axitinib + AZD7762; first compound 0.05 µM) | relative viability (Axitinib + AZD7762; first compound 0.1581 µM) | relative viability (Axitinib + AZD7762; first compound 0.5 µM) | relative viability ([2]; first compound 1 µM) | relative viability ([2]; first compound 3.162 µM) | relative viability ([2]; first compound 10 µM) | relative viability ([2]; first compound 31.62 µM) | relative viability ([2]; first compound 100 µM) | relative viability (Axitinib + Navitoclax; first compound 0.005 µM) | relative viability (Axitinib + Navitoclax; first compound 0.01581 µM) | relative viability (Axitinib + Navitoclax; first compound 0.05 µM) | relative viability (Axitinib + Navitoclax; first compound 0.1581 µM) | relative viability (Axitinib + Navitoclax; first compound 0.5 µM)
1 | NCI-H1944 | 0.406 | 0.461 | 0.39 | 0.337 | 0.343 | 0.586 | 0.441 | 0.506 | 0.447 | 0.541 | 0.346 | 0.362 | 0.351 | 0.252 | 0.293 | 1.07 | 0.995 | 1.01 | 1.02 | 1.06
2 | NCI-H1792 | 0.457 | 0.48 | 0.624 | – | 0.423 | 0.72 | 0.629 | 0.777 | 0.755 | 1.03 | – | 0.668 | 0.538 | 0.391 | 0.458 | 0.637 | 0.527 | 0.62 | 0.562 | 0.366
3 | HARA | 0.474 | 0.622 | 0.628 | 0.514 | 0.472 | 0.315 | 0.447 | 0.369 | 0.348 | 0.313 | – | 0.482 | 0.58 | – | 0.441 | 0.979 | 1.08 | 1.14 | 1.08 | 1.19
4 | NCI-H2347 | 0.576 | 0.685 | 0.603 | 0.65 | 0.698 | 0.828 | 0.763 | 0.792 | 0.723 | 0.873 | 0.467 | 0.467 | 0.431 | 0.328 | 0.367 | 0.793 | 0.857 | 0.902 | 0.818 | 0.934
